Assay results from BigSolDB 2.1.

`CN1C(C(=O)Nc2ccccn2)=C(O)c2sc(Cl)cc2S1(=O)=O` showed a solubility (mole fraction) (in PEG-400, 298.15 K) of 0.00855, a solubility (mole fraction) (in PEG-400, 303.15 K) of 0.0101 and a solubility (mole fraction) (in PEG-400, 308.15 K) of 0.0114. It also gave a solubility (mole fraction) (in PEG-400, 313.15 K) of 0.0129, a solubility (mole fraction) (in PEG-400, 323.15 K) of 0.0169 and a solubility (mole fraction) (in ethanol, 298.15 K) of 8.43e-06. It also gave a solubility (mole fraction) (in ethanol, 303.15 K) of 1.16e-05, a solubility (mole fraction) (in ethanol, 308.15 K) of 1.45e-05 and a solubility (mole fraction) (in ethanol, 313.15 K) of 1.98e-05. For the same compound, the solubility (mole fraction) (in ethanol, 323.15 K) was 3.22e-05, the solubility (mole fraction) (in ethyl acetate, 298.15 K) was 8.39e-05 and the solubility (mole fraction) (in ethyl acetate, 303.15 K) was 9.08e-05. For the same compound, the solubility (mole fraction) (in ethyl acetate, 308.15 K) was 9.86e-05, the solubility (mole fraction) (in ethyl acetate, 313.15 K) was 0.000107 and the solubility (mole fraction) (in ethyl acetate, 323.15 K) was 0.000121. The solubility (mole fraction) (in ethylene glycol, 298.15 K) was 0.000224, the solubility (mole fraction) (in ethylene glycol, 303.15 K) was 0.000334 and the solubility (mole fraction) (in ethylene glycol, 308.15 K) was 0.000474. The solubility (mole fraction) (in ethylene glycol, 313.15 K) was 0.000634, the solubility (mole fraction) (in ethylene glycol, 323.15 K) was 0.00108 and the solubility (mole fraction) (in isopropanol, 298.15 K) was 9.05e-06. The solubility (mole fraction) (in isopropanol, 303.15 K) was 1.16e-05, the solubility (mole fraction) (in isopropanol, 308.15 K) was 1.45e-05 and the solubility (mole fraction) (in isopropanol, 313.15 K) was 1.81e-05. The solubility (mole fraction) (in isopropanol, 323.15 K) was 2.67e-05, the solubility (mole fraction) (in n-butanol, 298.15 K) was 1.36e-05 and the solubility (mole fraction) (in n-butanol, 303.15 K) was 1.55e-05. For the same compound, the solubility (mole fraction) (in n-butanol, 308.15 K) was 1.75e-05, the solubility (mole fraction) (in n-butanol, 313.15 K) was 1.99e-05 and the solubility (mole fraction) (in n-butanol, 323.15 K) was 2.39e-05. It also gave a solubility (mole fraction) (in propylene glycol, 298.15 K) of 3.17e-05, a solubility (mole fraction) (in propylene glycol, 303.15 K) of 3.6e-05 and a solubility (mole fraction) (in propylene glycol, 308.15 K) of 4.05e-05. It also gave a solubility (mole fraction) (in propylene glycol, 313.15 K) of 4.5e-05, a solubility (mole fraction) (in propylene glycol, 323.15 K) of 5.4e-05 and a solubility (mole fraction) (in sec-butanol, 298.15 K) of 2.99e-05. For the same compound, the solubility (mole fraction) (in sec-butanol, 303.15 K) was 3.59e-05, the solubility (mole fraction) (in sec-butanol, 308.15 K) was 4.19e-05 and the solubility (mole fraction) (in sec-butanol, 313.15 K) was 4.78e-05. For the same compound, the solubility (mole fraction) (in sec-butanol, 323.15 K) was 6.58e-05, the solubility (mole fraction) (in transcutol, 298.15 K) was 0.000317 and the solubility (mole fraction) (in transcutol, 303.15 K) was 0.000382. The solubility (mole fraction) (in transcutol, 308.15 K) was 0.000462, the solubility (mole fraction) (in transcutol, 313.15 K) was 0.000552 and the solubility (mole fraction) (in transcutol, 323.15 K) was 0.000743. It also gave a solubility (mole fraction) (in water, 298.15 K) of 2.91e-06, a solubility (mole fraction) (in water, 303.15 K) of 4.12e-06 and a solubility (mole fraction) (in water, 308.15 K) of 5.52e-06. The solubility (mole fraction) (in water, 313.15 K) was 7.27e-06 and the solubility (mole fraction) (in water, 323.15 K) was 1.19e-05.
